Assay results: patent US20140323418A1, “SELECTIVE KINASE INHIBITORS” (PORTOLA PHARMACEUTICALS, INC., priority 2011, published 2014)

target: T1, full length active recombinant SYK enzyme (Homo sapiens, UniProt P43405); assay: Inhibition of Syk tyrosine phosphorylation activity (LANCE TR-FRET kinase assay); assay type: biochemical; conditions: 1 nM SYK, 550 nM substrate, 100 μM ATP, 1 hour room temperature
T1 construct: full length active recombinant SYK enzyme (Millipore, Calif.); purchased Millipore

Q: For `Cn1ncc2c(Nc3nc(N[C@H](C4CC4)C4(N)CC4)ncc3C(N)=O)cccc21` [Example 162, (R)-2-(1-(1-aminocyclopropyl)(cyclopropyl)methylamino)-4-(1-methyl-1H-indazol-4-ylamino)pyrimidine-5-carboxamide], which IC50 is on record?
A: 1 to 10 nM

Q: Which IC50 does the source give for `NC(=O)c1cnc(N[C@H](C2CC2)C2(N)CC2)nc1Nc1cccc(-n2cncn2)c1` [Example 163, (R)-4-(3-(1H-1,2,4-triazol-1-yl)phenylamino)-2-(1-(1-aminocyclopropyl)(cyclopropyl)methylamino)pyrimidine-5-carboxamide] here?
A: 1 to 10 nM

Q: `NC(=O)c1cnc(N[C@H](C2CC2)C2(N)CC2)nc1Nc1ccc2scnc2c1` [Example 166, (R)-2-(1-(1-aminocyclopropyl)(cyclopropyl)methylamino)-4-(benzo[d]thiazol-5-ylamino)pyrimidine-5-carboxamide] was tested. Which IC50 did it give?
A: 10 to 100 nM

Q: `NC(=O)c1cnc(N[C@H](C2CC2)C2(N)CC2)nc1Nc1ccc2ncsc2c1` [Example 167, (R)-2-(1-(1-aminocyclopropyl)(cyclopropyl)methylamino)-4-(benzo[d]thiazol-6-ylamino)pyrimidine-5-carboxamide] was tested. Which IC50 did it give?
A: 1 to 10 nM

Q: With `NC(=O)c1cnc(N[C@@H]2CCCC(F)(F)[C@@H]2N)nc1Nc1cnc2ccccc2c1` [Example 168, 2-((1R,2R)-2-amino-3,3-difluorocyclohexylamino)-4-(quinolin-3-ylamino)pyrimidine-5-carboxamide] as the molecule, how does the IC50 read?
A: 100 to 1000 nM

Q: `NC(=O)c1cnc(N[C@@H]2CCCC(F)(F)[C@@H]2N)nc1Nc1ccc2ncccc2c1` [Example 169, 2-((1R,2R)-2-amino-3,3-difluorocyclohexylamino)-4-(quinolin-6-ylamino)pyrimidine-5-carboxamide] was tested. Which IC50 did it give?
A: 10 to 100 nM

Q: For `NC(=O)c1cnc(N[C@H](C2CC2)C2(N)CC2)nc1Nc1ccc(F)cc1` [Example 170, (R)-2-(1-(1-aminocyclopropyl)(cyclopropyl)methylamino)-4-(4-fluorophenylamino)pyrimidine-5-carboxamide], which IC50 is on record?
A: 100 to 1000 nM

Q: `NC(=O)c1cnc(N[C@H](C2CC2)C2(N)CC2)nc1Nc1csc2ncccc12` [Example 171, (R)-2-(1-(1-aminocyclopropyl)(cyclopropyl)methylamino)-4-(thieno[2,3-b]pyridine-3-ylamino)pyrimidine-5-carboxamide] was tested. Which IC50 did it give?
A: 1 to 10 nM

Q: `NC(=O)c1cnc(N[C@@H]2CCOC[C@@H]2N)nc1Nc1cnc2ccccc2c1` [Example 177, 2-((3R,4R)-3-aminotetrahydro-2H-pyran-4-ylamino)-4-(quinolin-3-ylamino)pyrimidine-5-carboxamide] was tested. Which IC50 did it give?
A: 10 to 100 nM

Q: `NC(=O)c1cnc(N[C@@H]2CCOC[C@@H]2N)nc1Nc1ccc2scnc2c1` [Example 178, 2-((3R,4R)-3-aminotetrahydro-2H-pyran-4-ylamino)-4-(benzo[d]thiazol-5-ylamino)pyrimidine-5-carboxamide] was tested. Which IC50 did it give?
A: 10 to 100 nM

Q: Which IC50 does the source give for `NC(=O)c1cnc(N[C@@H]2CCOC[C@@H]2N)nc1Nc1csc2ncccc12` [Example 179, 2-((3R,4R)-3-aminotetrahydro-2H-pyran-4-ylamino)-4-(thieno[2,3-b]pyridin-3-ylamino)pyrimidine-5-carboxamide] here?
A: 10 to 100 nM

Q: Which IC50 does the source give for `NC(=O)c1cnc(N[C@@H]2CCOC[C@@H]2N)nc1Nc1ccc2ncccc2c1` [Example 180, 2-((3R,4R)-3-aminotetrahydro-2H-pyran-4-ylamino)-4-(quinolin-6-ylamino)pyrimidine-5-carboxamide] here?
A: 1 to 10 nM

Q: Which IC50 does the source give for `NC(=O)c1cnc(N[C@@H]2CCOC[C@@H]2N)nc1Nc1ccc2ncsc2c1` [Example 181, 2-((3R,4R)-3-aminotetrahydro-2H-pyran-4-ylamino)-4-(benzo[d]thiazol-6-ylamino)pyrimidine-5-carboxamide] here?
A: 10 to 100 nM

Q: For `NC(=O)c1cnc(Nc2ccccc2)nc1NC1CCC(N)CC1` (stereo not drawn) [Example 183, 4-(4-aminocyclohexylamino)-2-(phenylamino)pyrimidine-5-carboxamide], which IC50 is on record?
A: 10 to 100 nM

Q: `Cc1ccc(Nc2ncc(C(N)=O)c(N[C@H]3CC[C@@H](N)CC3)n2)cc1` [Example 184, 4-(4-aminocyclohexylamino)-2-(p-tolylamino)pyrimidine-5-carboxamide] was tested. Which IC50 did it give?
A: 10 to 100 nM
